Test results reported in publication PMC12320299 (Chemical Science, 2025).

System: SW480 cancer cells
Test: Proteome profiling of compound-treated SW480 cancer cells (24 h, approx. IC50, CYT and NE fractions)
Type: cell-based, human
Protocol: To gain insight into potential modes of action and derive structure–activity relationships on a molecular level, proteomic profiling experiments were carried out based on label-free quantification (LFQ) by nano-liquid chromatography tandem mass spectrometry (nLC-MS/MS). […] Six replicates were used per condition. The perturbations were evaluated at subcellular resolution by fractionating cells into cytoplasmic (CYT) and nuclear (NE) protein fractions. Those have been separately proteolytically digested and analysed (Fig. 3A). The perturbations with the 3-Et-NQ and 3-Morph-NQ complexes were performed against their respective solvent-treated controls (CON), yielding a total of 72 samples. […] Statistical significance of individual protein regulations was calculated by multiple testing-corrected P-values based on 5% false discovery rate (FDR = 0.05 and S0 = 0.1).
The position of each group represents the summed fold-changes of the individual proteins in the group according to the subcellular space, i.e., CYT and NE fractions, while the size represents the number of proteins in each group. […]
Proteome profiling of compound-treated SW480 cancer cells […]
cells per well and left to adhere in complete cell culture medium. After 24 h, the medium was exchanged with fresh complete medium (DMSO mock control) or fresh medium containing […]
solution in DMSO, respectively) and incubated for another 24 h. Each condition was carried out in hexuplicates. The cells were processed according to a nucleocytoplasmic fractionation protocol as previously described.3 All steps were performed on ice. The medium was removed, and the cells were washed twice with 1×PBS (phosphate buffered saline, 3 mL). Then, PBS was thoroughly removed. Isotonic lysis buffer (10 mM HEPES, 10 mM NaCl, 3.5 mM MgCl2, 1 mM EGTA, 0.25 M Sucrose, 0.5% Triton X-100) containing protease inhibitors (1% PMSF, Sigma, and 1% protease and phosphatase inhibitor cocktail, Roche) was added to the flasks, the cells were scraped off and transferred into labelled 15 mL Falcon tubes. The cellular membrane was ruptured using shear stress by pressing the cell suspension through a syringe 9–12 times. Membrane rupture with intact nuclei was monitored under a microscope. After centrifugation (960 g, 5 min), the supernatant containing the cytoplasmic (CYT) proteins was transferred into new tubes containing ice-cold ethanol (1 : 5, HPLC grade) and precipitated […]
overnight at –20 °C. The pellet containing the nuclei was incubated with a hypertonic solution (10 mM Tris-HCl, 1 mM EDTA and 0.5 M NaCl) and subsequently diluted 1:10 with NP-40 buffer (10 mm Tris-HCl, 1 mm EDTA and 0.5% Triton X-100) containing protease inhibitors (1% PMSF, Sigma, and 1% protease and phosphatase inhibitor cocktail, Roche). After centrifugation (960 g, 5 min), the soluble nuclear (NE) proteins were also transferred into new tubes containing ice-cold ethanol (1 : 5, HPLC grade) and precipitated overnight at –20 °C.
The precipitated proteins were finally pelleted by centrifugation (5000 g, 30 min, 4 °C), the solution was decanted and the pellet dried under vacuum.

[1] = cytoplasmic fraction, FDR = 0.05, S0 = 0.1
[2] = nuclear fraction, FDR = 0.05, S0 = 0.1

Compound: Cc1ccc(C(C)C)cc1.O=C1C(CN2CCOCC2)=C2[O][Ru][O]C2(n2cccn2)c2ccccc21 (stereo not shown) [Compound 1b]
- GO BP Cell cycle, summed fold-changes (NE fraction): 26.1
- GO BP Cell division, summed fold-changes (NE fraction): 26.9
- GO BP Chromatin organization, summed fold-changes (NE fraction): 28.0
- GO BP DNA damage response, summed fold-changes (NE fraction): 22.6
- GO BP DNA repair, summed fold-changes (NE fraction): 35.2
- GO BP DNA replication, summed fold-changes (NE fraction): 6.1
- GO BP Intracellular protein transport, summed fold-changes (NE fraction): -31.2
- GO BP Mitotic cytokinesis, summed fold-changes (NE fraction): 4.0
- GO BP Negative regulation of DNA-templated transcription, summed fold-changes (NE fraction): 65.6
- GO BP Nucleocytoplasmic transport, summed fold-changes (NE fraction): 26.1
- GO BP Positive regulation of DNA-templated transcription, summed fold-changes (NE fraction): 71.8
- GO BP Proteasome-mediated ubiquitin-dependent protein catabolic process, summed fold-changes (NE fraction): 26.0
- GO BP Protein folding, summed fold-changes (NE fraction): -27.7
- GO BP Protein stabilization, summed fold-changes (NE fraction): -4.7
- GO BP Protein transport, summed fold-changes (NE fraction): -9.8
- GO BP Purine nucleotide biosynthetic process, summed fold-changes (NE fraction): -7.4
- GO BP RNA splicing, summed fold-changes (NE fraction): 29.0
- GO BP Regulation of apoptotic process, summed fold-changes (NE fraction): 4.6
- GO BP Regulation of cell fate specification, summed fold-changes (NE fraction): 10.8
- GO BP Regulation of double-strand break repair, summed fold-changes (NE fraction): 14.0
- GO BP Regulation of stem cell differentiation, summed fold-changes (NE fraction): 12.8
- GO BP Response to oxidative stress, summed fold-changes (NE fraction): -22.0
- GO BP Ribosomal small subunit biogenesis, summed fold-changes (NE fraction): 25.3
- GO BP Ribosome biogenesis, summed fold-changes (NE fraction): 6.9
- GO BP Ubiquitin-dependent protein catabolic process, summed fold-changes (NE fraction): 4.9
- GO BP Vesicle-mediated transport, summed fold-changes (NE fraction): -26.9
- GO BP mRNA processing, summed fold-changes (NE fraction): 25.4
- GO BP mRNA splicing, via spliceosome, summed fold-changes (NE fraction): 37.9
- GO BP mRNA transport, summed fold-changes (NE fraction): 17.5
- GO BP rRNA processing, summed fold-changes (NE fraction): 40.4
- GO CC Azurophil granule lumen, summed fold-changes (NE fraction): -24.9
- GO CC Chromatin, summed fold-changes (NE fraction): 92.4
- GO CC Chromosome, centromeric region, summed fold-changes (NE fraction): 9.3
- GO CC Chromosome, summed fold-changes (NE fraction): 28.8
- GO CC Chromosome, telomeric region, summed fold-changes (NE fraction): 30.4
- GO CC Condensin complex, summed fold-changes (NE fraction): 1.4
- GO CC Cytoskeleton, summed fold-changes (NE fraction): -23.7
- GO CC Endosome, summed fold-changes (NE fraction): -21.5
- GO CC Extracellular exosome, summed fold-changes (NE fraction): -325.4
- GO CC Fibrillar center, summed fold-changes (NE fraction): 22.1
- GO CC Ficolin-1-rich granule lumen, summed fold-changes (NE fraction): -29.3
- GO CC Focal adhesion, summed fold-changes (NE fraction): -55.9
- GO CC Intracellular membrane-bounded organelle, summed fold-changes (NE fraction): -21.7
- GO CC Kinetochore, summed fold-changes (NE fraction): 23.6
- GO CC Lipid droplet, summed fold-changes (NE fraction): -14.4
- GO CC Lysosome, summed fold-changes (NE fraction): -44.7
- GO CC Microtubule cytoskeleton, summed fold-changes (NE fraction): -18.2
- GO CC Mitochondrion, summed fold-changes (NE fraction): -134.2
- GO CC Nuclear envelope, summed fold-changes (NE fraction): 21.5
- GO CC Nuclear speck, summed fold-changes (NE fraction): 55.6
- GO CC Nucleolus, summed fold-changes (NE fraction): 104.6
- GO CC Nucleoplasm, summed fold-changes (NE fraction): 270.4
- GO CC Nucleus, summed fold-changes (NE fraction): 135.2
- GO CC Proteasome complex, summed fold-changes (NE fraction): 12.2
- GO CC Protein-containing complex, summed fold-changes (NE fraction): -21.9
- GO CC Ribonucleoprotein complex, summed fold-changes (NE fraction): 3.5
- GO CC SCAR complex, summed fold-changes (NE fraction): -6.0
- GO CC Small-subunit processome, summed fold-changes (NE fraction): 29.5
- GO CC Spliceosomal complex, summed fold-changes (NE fraction): 22.0
- GO CC Transcription repressor complex, summed fold-changes (NE fraction): 12.8
- GO CC Vesicle, summed fold-changes (NE fraction): -24.1
- KEGG pathway ATP-dependent chromatin remodeling, summed fold-changes (NE fraction): 35.8
- KEGG pathway Apoptosis, summed fold-changes (NE fraction): -20.6
- KEGG pathway Basal transcription factors, summed fold-changes (NE fraction): 10.6
- KEGG pathway Biosynthesis of amino acids, summed fold-changes (NE fraction): -32.4
- KEGG pathway Biosynthesis of cofactors, summed fold-changes (NE fraction): -31.7
- KEGG pathway Cell cycle, summed fold-changes (NE fraction): 19.2
- KEGG pathway Nucleocytoplasmic transport, summed fold-changes (NE fraction): 34.5
- KEGG pathway Polycomb repressive complex, summed fold-changes (NE fraction): 17.0
- KEGG pathway Proteasome, summed fold-changes (NE fraction): 16.8
- KEGG pathway Ribosome biogenesis in eukaryotes, summed fold-changes (NE fraction): 28.9
- N° proteins down-regulated, CYT [1]: 8
- N° proteins upregulated, CYT [1]: 8
- N° proteins down-regulated, NE [2]: 772
- N° proteins upregulated, NE [2]: 710
- regulated proteins in CYT (up- and down-regulated): 16
